Data reported in patent publication US12077503B2, “Substituted cyclic amides and their use as herbicides” (FMC CORPORATION, priority 2015, dated 2024).

Tests used:
Type in all cases: in vivo
[1] = test system: barnyardgrass (Echinochloa crus-galli); experiment: Test A preemergence; conditions: Echinochloa crus-galli, pre-emergence, 240 h, Preemergence
Procedure, shortened: (§1)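 Seeds sprayed preemergence with a directed soil spray, or plants at 2 to 10 cm height and one- to two-leaf stage sprayed postemergence, with test chemicals in a non-phytotoxic solvent mixture containing surfactant, in loam soil–sand blend. Injury rated visually against untreated controls after about 10 d in greenhouse, 0 (no effect) to 100 (complete control).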

Kochia (Kochia scoparia) [2] = experiment: Test A preemergence; conditions: Bassia scoparia, pre-emergence, 240 h, Preemergence
Procedure, shortened: as §1

[3] = test system: ragweed (common ragweed, Ambrosia elatior); experiment: Test A preemergence; conditions: Ambrosia artemisiifolia, pre-emergence, 240 h, Preemergence
Procedure, shortened: as §1

[4] = test system: ryegrass, Italian (Italian ryegrass, Lolium multiflorum); experiment: Test A preemergence; conditions: Lolium multiflorum, pre-emergence, 240 h, Preemergence
Procedure, shortened: as §1

[5] = test system: pigweed (Amaranthus retroflexus); experiment: Test A preemergence; conditions: Amaranthus retroflexus, pre-emergence, 240 h, Preemergence
[6] = test system: giant foxtail (Setaria faberii); experiment: Test A preemergence; conditions: Setaria faberi, pre-emergence, 240 h, Preemergence
Procedure, shortened: as §1

[7] = test system: barnyardgrass (Echinochloa crus-galli); experiment: Test B flooded paddy test; conditions: Echinochloa crus-galli, 250 g ai/ha, Flood; 0 to 100 scale where 0 is no effect and 100 is complete control; read-out: Barnyardgrass plant response rating
Procedure, shortened: (§2)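 Plants at 2-leaf stage flooded to 3 cm above soil, with compounds applied directly to paddy water and that depth maintained. Plants kept in greenhouse 13–15 d. Visual rating versus controls on a 0 (no effect) to 100 (complete control) scale.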

rice (Oryra sativa) = experiment: Test B flooded paddy test; conditions: Oryza sativa, 250 g ai/ha, Flood; 0 to 100 scale where 0 is no effect and 100 is complete control; read-out: Rice plant response rating
Procedure, shortened: as §2

[8] = test system: ducksalad (Heteranthera limosa); experiment: Test B flooded paddy test; conditions: Heteranthera limosa, 250 g ai/ha, Flood; 0 to 100 scale where 0 is no effect and 100 is complete control; read-out: Ducksalad plant response rating
Procedure, shortened: as §2

[9] = test system: sedge, umbrella (small-flower umbrella sedge, Cyperus difformis); experiment: Test B flooded paddy test; conditions: Cyperus difformis, 250 g ai/ha, Flood; 0 to 100 scale where 0 is no effect and 100 is complete control; read-out: Sedge, Umbrella plant response rating
Procedure, shortened: as §2

[10] = test system: barnyardgrass (Echinochloa crus-galli); experiment: Test A postemergence; conditions: Echinochloa crus-galli, post-emergence, 240 h
Procedure, shortened: as §1

Kochia (Kochia scoparia) [11] = experiment: Test A postemergence; conditions: Bassia scoparia, post-emergence, 240 h
Procedure, shortened: as §1

[12] = test system: ragweed (common ragweed, Ambrosia elatior); experiment: Test A postemergence; conditions: Ambrosia artemisiifolia, post-emergence, 240 h
Procedure, shortened: as §1

[13] = test system: ryegrass, Italian (Italian ryegrass, Lolium multiflorum); experiment: Test A postemergence; conditions: Lolium multiflorum, post-emergence, 240 h
Procedure, shortened: as §1

[14] = test system: pigweed (Amaranthus retroflexus); experiment: Test A postemergence; conditions: Amaranthus retroflexus, post-emergence, 240 h
Procedure, shortened: as §1

[15] = test system: blackgrass (Alopecurus myosuroides); experiment: Test A postemergence; conditions: Alopecurus myosuroides, post-emergence, 240 h
Procedure, shortened: as §1

corn (Zea mays) = experiment: Test A postemergence; conditions: Zea mays, post-emergence, 240 h
Procedure, shortened: as §1

[16] = test system: wheat (Triticum aestivum); experiment: Test A postemergence; conditions: Triticum aestivum, post-emergence, 240 h
Procedure, shortened: as §1

[17] = test system: Galium (catchweed bedstraw, Galium aparine); experiment: Test A postemergence; conditions: Galium, post-emergence, 240 h
Procedure, shortened: as §1

[18] = test system: giant foxtail (Setaria faberii); experiment: Test A postemergence; conditions: Setaria faberi, post-emergence, 240 h
Procedure, shortened: as §1

CSc1ccccc1NC(=O)[C@H]1C(=O)N(C)C[C@@H]1c1ccc(C(F)(F)F)cn1 [Compound 1051]
50%: pest or weed control at 125 g/ha ([17]; 125 g ai/ha, postemergence, visual injury on 0 to 100 scale (0 no effect, 100 complete control), approx. 10 d, read-out: Galium plant response rating)
0%: pest or weed control at 31 g/ha ([1]; 31 g ai/ha, 0 to 100 scale (0 no effect, 100 complete control), read-out: Plant response rating, Barnyardgrass) | pest or weed control at 31 g/ha (Kochia (Kochia scoparia) [2]; 31 g ai/ha, 0 to 100 scale where 0 is no effect and 100 is complete control, read-out: Kochia plant response rating) | pest or weed control at 125 g/ha (Kochia (Kochia scoparia) [2]; 125 g ai/ha, visual injury rating after approximately 10 d, read-out: Kochia plant response rating (0 to 100 scale, 0 is no effect, 100 is complete control)) | pest or weed control at 31 g/ha ([3]; 31 g ai/ha, 0 to 100 scale where 0 is no effect and 100 is complete control, read-out: Ragweed plant response rating) | pest or weed control at 125 g/ha ([3]; 125 g ai/ha, visual injury rating after approximately 10 d, read-out: Ragweed plant response rating (0 to 100 scale, 0 is no effect, 100 is complete control)) | pest or weed control at 31 g/ha ([4]; 31 g ai/ha, 0 to 100 scale where 0 is no effect and 100 is complete control, read-out: Ryegrass, Italian plant response rating) | pest or weed control at 125 g/ha ([4]; 125 g ai/ha, visual injury rating after approximately 10 d, read-out: Ryegrass, Italian plant response rating (0 to 100 scale, 0 is no effect, 100 is complete control)) | pest or weed control at 31 g/ha ([5]; 31 g ai/ha, 0 to 100 scale where 0 is no effect and 100 is complete control, read-out: Pigweed plant response rating) | pest or weed control at 250 g/ha [7] | pest or weed control at 250 g/ha (rice (Oryra sativa)) | pest or weed control at 250 g/ha [9] | pest or weed control at 125 g/ha ([10]; 125 g ai/ha, postemergence, visual injury on 0 to 100 scale (0 no effect, 100 complete control), approx. 10 d, read-out: Barnyardgrass plant response rating) | pest or weed control at 31 g/ha ([10]; Postemergence, 31 g ai/ha, visual injury after approx. 10 d, 0 to 100 scale, 0 no effect, 100 complete control, read-out: Plant response rating, Barnyardgrass) | pest or weed control at 125 g/ha (Kochia (Kochia scoparia) [11]; 125 g ai/ha, postemergence, visual injury on 0 to 100 scale (0 no effect, 100 complete control), approx. 10 d, read-out: Kochia plant response rating) | pest or weed control at 31 g/ha (Kochia (Kochia scoparia) [11]; Postemergence, 31 g ai/ha, visual injury after approx. 10 d, 0 to 100 scale, 0 no effect, 100 complete control, read-out: Plant response rating, Kochia) | pest or weed control at 125 g/ha ([12]; 125 g ai/ha, postemergence, visual injury on 0 to 100 scale (0 no effect, 100 complete control), approx. 10 d, read-out: Ragweed plant response rating) | pest or weed control at 31 g/ha ([12]; Postemergence, 31 g ai/ha, visual injury after approx. 10 d, 0 to 100 scale, 0 no effect, 100 complete control, read-out: Plant response rating, Ragweed) | pest or weed control at 125 g/ha ([13]; 125 g ai/ha, postemergence, visual injury on 0 to 100 scale (0 no effect, 100 complete control), approx. 10 d, read-out: Ryegrass, Italian plant response rating) | pest or weed control at 31 g/ha ([13]; Postemergence, 31 g ai/ha, visual injury after approx. 10 d, 0 to 100 scale, 0 no effect, 100 complete control, read-out: Plant response rating, Ryegrass, Italian) | pest or weed control at 125 g/ha ([14]; 125 g ai/ha, postemergence, visual injury on 0 to 100 scale (0 no effect, 100 complete control), approx. 10 d, read-out: Pigweed plant response rating) | pest or weed control at 31 g/ha ([14]; Postemergence, 31 g ai/ha, visual injury after approx. 10 d, 0 to 100 scale, 0 no effect, 100 complete control, read-out: Plant response rating, Pigweed) | pest or weed control at 125 g/ha ([15]; 125 g ai/ha, postemergence, visual injury on 0 to 100 scale (0 no effect, 100 complete control), approx. 10 d, read-out: Blackgrass plant response rating) | pest or weed control at 31 g/ha ([15]; Postemergence, 31 g ai/ha, visual injury after approx. 10 d, 0 to 100 scale, 0 no effect, 100 complete control, read-out: Plant response rating, Blackgrass) | plant injury at 125 g/ha (corn (Zea mays); 125 g ai/ha, postemergence, visual injury on 0 to 100 scale (0 no effect, 100 complete control), approx. 10 d, read-out: Corn plant response rating) | Corn plant response rating (crop injury, 0 = no effect, 100 = complete kill) at 31 g/ha (corn (Zea mays); Postemergence, 31 g ai/ha, visual injury after approx. 10 d, 0 to 100 scale, 0 no effect, 100 complete control) | plant injury at 125 g/ha ([16]; 125 g ai/ha, postemergence, visual injury on 0 to 100 scale (0 no effect, 100 complete control), approx. 10 d, read-out: Wheat plant response rating) | plant injury at 31 g/ha ([16]; Postemergence, 31 g ai/ha, visual injury after approx. 10 d, 0 to 100 scale, 0 no effect, 100 complete control, read-out: Plant response rating, Wheat) | pest or weed control at 125 g/ha ([18]; 125 g ai/ha, postemergence, visual injury on 0 to 100 scale (0 no effect, 100 complete control), approx. 10 d, read-out: Foxtail, Giant plant response rating) | pest or weed control at 31 g/ha ([18]; Postemergence, 31 g ai/ha, visual injury after approx. 10 d, 0 to 100 scale, 0 no effect, 100 complete control, read-out: Plant response rating, Foxtail, Giant)
20%: pest or weed control at 125 g/ha ([1]; 125 g ai/ha, visual injury rating after approximately 10 d, read-out: Barnyardgrass plant response rating (0 to 100 scale, 0 is no effect, 100 is complete control))
90%: pest or weed control at 125 g/ha ([6]; 125 g ai/ha, visual injury rating after approximately 10 d, read-out: Foxtail, Giant plant response rating (0 to 100 scale, 0 is no effect, 100 is complete control))
75%: pest or weed control at 250 g/ha [8]
40%: pest or weed control at 125 g/ha ([5]; 125 g ai/ha, visual injury rating after approximately 10 d, read-out: Pigweed plant response rating (0 to 100 scale, 0 is no effect, 100 is complete control))
30%: pest or weed control at 31 g/ha ([6]; 31 g ai/ha, 0 to 100 scale (0 no effect, 100 complete control), read-out: Plant response rating, Foxtail, Giant) | pest or weed control at 31 g/ha ([17]; Postemergence, 31 g ai/ha, visual injury after approx. 10 d, 0 to 100 scale, 0 no effect, 100 complete control, read-out: Plant response rating, Galium)
